For data set [1], the target named is T1, β1-AR (Homo sapiens, UniProt P08588). The data set can be described thus: [3H]DHA radioligand displacement on membranes of HEK293T cells expressing β1-AR. Conditions: for fold Ki trans vs PSScis at β1-AR: fold difference between Ki of trans and Ki at PSScis; for Active state at β1-AR: isomer state with higher affinity.
Procedure: (§5) Membranes of HEK293T-cells transiently expressing the receptor of interest were co-incubated with the tritiated β1/β2-AR antagonist dihydroalprenolol ([^3H]DHA, Figure S2 depicts saturation binding experiments), together with increasing concentrations of the competing unlabeled ligand.
(§6) Two million HEK293T cells were seeded in a 10cm^2 dish and were transiently transfected the next day with 1 μg human β1-AR or the β2-AR plasmid DNA, 4 μg empty pcDEF3 plasmid DNA and 30 μg linear 25 kDa polyethyleneimine (PEI; Polysciences Warrington, USA) in a 150 mM NaCl solution. […] Two days after transfection, cells were resuspended and washed (3 times) with PBS and pelleted by centrifugation steps at 1500 g. After the final centrifugation step, cell pellets were reconstituted into ice-cold Tris-HCl buffer (15 mM, supplemented with 0.3 mM EDTA and 2 mM MgCl2 at pH7.4) and dounce-homogenised by plunging the pestle 10 times with 1,500 rpm (Tamson, the Netherlands). The homogenates were frozen and thawed twice using liquid nitrogen, after which the membranes were isolated using an ultra-centrifuge L70 at 40,000 g (Beckman Coulter, USA). Cell pellets were then washed and reconstituted in ice-cold 20 mM Tris-HCl buffer supplemented with 250 mM Sucrose at pH 7.4. Finally, the membrane samples where homogenized using a 23-gauge needle, snap-frozen with liquid nitrogen and stored until further experimentation at −80 °C. The protein content was determined using a BCA protein assay kit (Thermo Scientific, USA).
(§7) On the day of the experiment 0.25–0.5 μg membranes expressing either the β1-AR or the β2-AR, were co-incubated with [^3H]DHA (Perkin Elmer, USA) and increasing concentrations unlabeled ligand in HBSS buffer (Thermo Scientific, with Ca^2+ and Mg^2+) supplemented with 0.1% BSA for 1 h at 25 °C under gentile agitation. Either a 4 nM or 1 nM concentration of [^3H]DHA was used in combination with membranes expressing either the β1-AR or β2-AR, respectively. Binding reactions were terminated by filtration over a PEI coated GF/C filter (Perkin Elmer) using ice-cold 50 mM Tris-HCl buffer with 500 mM NaCl at pH 7.4. GF/C plates were dried at 52 °C and filter bound [^3H]DHA was quantified by adding 25 μL/well Microscint-O scintillation liquid and counting luminescence using the Wallac Microbeta counter, as described before.
(§8) IC50 values were determined by fitting the concentration-dependent displacement of [^3H]DHA by unlabeled ligands, with a three-parameter sigmoidal model in GraphPad Prism. […] Competition binding graphs represent the pooled data of ≥3 experiments, normalized to the fitted top and bottom of the reference sigmoidal displacement curve of unlabeled DHA.
Data set [2] has as its target T2, β2-AR (Homo sapiens, UniProt P07550). The data set can be described thus: [3H]DHA radioligand displacement on membranes of HEK293T cells expressing β2-AR. Conditions: for fold Ki trans vs PSScis at β2-AR: fold difference between Ki of trans and Ki at PSScis; for Active state at β2-AR: isomer state with higher affinity; for Ki: β2-AR; for selectivity in binding β2-AR over β1-AR: cis-isomer (PSScis). (In general: In a radioligand displacement assay an active substance lowers the binding of a labelled ligand.)
Target sequence in this assay (P07550 whole entry): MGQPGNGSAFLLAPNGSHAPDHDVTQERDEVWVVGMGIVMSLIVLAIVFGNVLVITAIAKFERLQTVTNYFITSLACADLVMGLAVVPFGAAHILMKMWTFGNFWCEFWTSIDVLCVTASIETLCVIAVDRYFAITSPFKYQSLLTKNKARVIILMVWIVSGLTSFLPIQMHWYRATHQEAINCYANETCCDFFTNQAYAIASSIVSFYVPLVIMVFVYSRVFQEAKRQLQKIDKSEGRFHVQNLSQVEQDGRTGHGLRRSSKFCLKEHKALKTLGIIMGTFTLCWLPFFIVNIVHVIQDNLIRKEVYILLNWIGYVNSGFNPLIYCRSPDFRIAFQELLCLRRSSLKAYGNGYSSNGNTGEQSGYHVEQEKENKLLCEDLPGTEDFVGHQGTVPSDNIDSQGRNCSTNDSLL
Procedure: as §5, §6, §7, §8

Data set [3] can be described thus: UV-Vis absorbance spectra. Type of data set: physicochemical. Particulars: 25 μM in HBSS buffer with 1% DMSO; for λmax cis: cis-isomer; for λmax trans: trans-isomer. On the procedure:
(§1) Solubility in buffer was explored for all compounds using nephelometry ([Bevan and Lloyd, 2000]) and these studies indicate good solubility of all azobenzene photoswiches up to at least 100 μM (Figure S1). […] For all compounds, 360 nm induces a large change in absorbance spectrum compared with the non-illuminated (dark) compounds (Table 1, Figure 2A, and S1), indicating photoisomerization to the cis-isomer. The absorbance peak (λmax) of Opto-prop-1-3 ranged between 319 and 347 nm for the trans-isomers and between 423 and 429 for the cis-isomers (Table 1), as is typical for azobenzene compounds ([Hauwert et al., 2018]). […] The photochemical conversions were determined by continuous illumination of the Opto-prop compounds with near UV-light (360 ± 20 nm) as 10-mM solutions in DMSO. Based on LCMS analysis, it was observed that all compounds obtained a high level of conversion to the cis-isomer with a photostationary state (PSS) of >88 area % cis-isomer (i.e. PSScis; Table 1). Subsequent back-switching to PSStrans with 434 nm maintained 22–29 area % cis-isomer (Table 1). The thermal relaxation of the PSScis state of the photoswitchable ligands was monitored over time by measuring absorbance at 254 nm. Only minor thermal relaxation to the trans-isomer could be detected at 20°C (not shown). An estimate of the relaxation rate at 20 °C was determined using a method by Priimagi et al. ([Ahmed et al., 2017]), which was performed in Hanks’ balanced salt solution (HBSS) using increased temperatures to enhance the speed of thermal relaxation. The Opto-prop ligands are all very stable as cis-isomer after illumination, with thermal relaxation half-lives of >10 days at 20 °C (See Table 1 and Figure S1).
UV-Vis spectra were obtained using a Thermo-scientific Evolution 201 PC spectrophotometer. Illumination was executed using a Sutter instruments Lambda LS with a 300 Watt full-spectrum lamp connected to a Sutter instruments Lambda 10-3 optical filter changer equipped with 360 ± 20 nm, 400 ± 5 nm, 434 ± 9 nm and 460 ± 5 nm filters. The light intensity is 0.93 mW/mm^2 using the 360 ± 20 nm filter, 0.22 mW/mm^2 using the 400 ± 5 nm filter, 0.79 mW/mm^2 for the 434 ± 9 nm filter and 0.26 mW/mm^2 for the 460 ± 5 nm filter as measured using a Thorlabs PM16-401 power meter.
For the determination of the UV-Vis spectra shown in Figure 2A, compounds (25 μM in 1% DMSO/HBSS buffer) were illuminated in Hellma Suprasil quartz 114-QS cuvettes with either a 360, 400, 434 or 460 nm filter for the indicated time. For the determination of PSScis and PSStrans states by UV spectroscopy (Figures S1D–S1F), a solution of the compound in 1% DMSO/HBSS buffer (25 μM) in a vial was illuminated to PSS cis with 360 nm (typically 4–5 min) and subsequently to PSS trans with 434 nm (typically 2–5 min). UV spectra were recorded.

The nature of data set [4]: Cis-to-trans thermal relaxation, Arrhenius extrapolation. Type of data set: physicochemical. Particulars: PSScis sample 25 μM in HBSS buffer with 1% DMSO; Arrhenius extrapolation to 20 °C. On the procedure:
as §1
Cis-to-trans thermal relaxations were performed in the dark at 25 μM of the PSS360 state of the Opto-prop-1, -2 or -3 in HBSS buffer with 1% DMSO at various temperatures (60°C, 70°C and 80°C). Absorbance was repeatedly measured at 320, 320 and 347 nm for Opto-prop-1, -2 or -3, respectively, with 60 s intervals.

A short description of data set [5]: PSScis and PSStrans by LC analysis. The class given is physicochemical. Particulars: for PSScis (% cis-isomer): 10 mM in DMSO after illumination with 360 nm; for PSScis (% cis-isomer) / PSStrans (% cis-isomer): LCMS area at isosbestic wavelength; for PSStrans (% cis-isomer): 10 mM in DMSO, 360 nm then 434 nm. On the procedure:
as §1
For the determination of PSScis and PSStrans values by LC analysis (Table 1), a solution of the compound in DMSO (10 mM) was illuminated to PSScis with 360 nm and subsequently to PSStrans with 434 nm. PSS aliquots were withdrawn, diluted with MeCN and subjected to LCMS analysis with the corresponding isosbestic points wavelength: 278, 263 and 308 nm for Opto-prop-1-3, respectively.

The target in data set [6] is T2, β2-AR. The data set can be described thus: Saturation binding of [3H]dihydroalprenolol, β2-AR membranes. Also on record: host or cells: HEK293T, transient; membranes. Particulars: HEK293T membranes. On the procedure: (§2) Figure S2. Saturation binding of [3H]dihydroalprenolol t o the β1 and β2 adrenergic rec eptors, related to Figure 3. Increasing concentrations [3H]dihydroalprenolol were incubated with membranes of HEK293T cells transiently expressing either the β1-AR (A) or β2-AR (B). Both the radioligand concentration and bound radioligand were quantified by scintillation counting. Data represent the po o led m ean ± SD of 4 experiments. Binding affinities (pKd) of [3H]dihydroalprenolol were determined by fitting the data in each individual experiment. […]
(§3) and a Bmax value of 33 ± 19 pmol/mg at membranes expressing the β2-AR.
(§4) (1 picture or pasted object on this page, not shown here)
Target sequence in this assay (P07550 whole entry): as above

Data set [7] has as its target T1, β1-AR. Kind of data set: Saturation binding of [3H]dihydroalprenolol, β1-AR membranes. Also on record: host or cells: HEK293T, transient; membranes. Conditions: HEK293T membranes. As to the method:
as §2, §3, §4

Data set [8] relates to isolated adult rat cardiomyocytes. The data set can be described thus: Contractility (sarcomere shortening) of paced isolated cardiomyocytes. Type of data set: cell-based. Conditions: paced at 2 Hz; for effect on isoprenaline-enhanced contractility: 1 μM with 15 nM isoprenaline. As to the method: To evaluate Opto-prop-2 in a relevant biological system with endogenous levels of the native receptor proteins, it was tested using isolated adult rat cardiomyocytes. Cardiomyocytes were paced at 2Hz, inducing contractions that were quantified by measuring the sarcomere length over time (Figure 6A). […] This enhanced contractility was attenuated by co-incubating with cis-Opto-prop-2 (magenta line) but not by trans-Opto-prop-2 (teal line) at 1 μM concentrations.
Intact adult cardiomyocytes were isolated from 3 adult wild-type Wistar rats weighing 200–250 g as described previously. ([Nollet et al., 2020]; [van Deel et al., 2017]) Briefly, rats were sedated and anesthesized by isoflurane inhalation. The heart was removed and perfused in a Langendorff setup with Liberase TM (Roche) digestive enzymes and the left ventricle was consequently cut into small pieces and resuspended in stopping buffer. This mixture was passed over a 300 μm nylon mesh filter, isolated cells in the filtrate were resuspended in buffer containing 1mM CaCl2. Cells were suspended in plating medium composed of Medium 199 (Lonza), 1% penicillin/streptomycin and 5% bovine serum and plated on a laminin coated dish (10 μg/mL, Sigma-Aldrich). The cells were incubated for 1 h at 37 °C in humidified air with 5% CO2 to let them attach to the coated dish. Afterwards, non-attached cells were removed by washing cells with pre-heated Tyrode solution (137 mM NaCl, 5.4 mM KCl, 3 mM sodium pyruvate, 5 mM HEPES, 0.57 mM MgCl2, 0.33 mM NaH2PO4, 1.0 mM CaCl2 and 5.6 mM glucose, pH 7.4 at 37 °C). Contractility measurements were performed at 37 °C using the Multi-Cell system (CytoCypher, the Netherlands). Cells were treated to vehicle (DMSO), 15 nM isoproterenol alone or in combination with 1 μM of propranolol or Opto-prop-2 (either with or without prior illumination). […]
Changes in sarcomere length were recorded with a high-speed camera and Ionoptix software (Ionoptix, Westwood MA, USA). The contractility profiles were analyzed with the automated, batch analysis software ‘Transient Analysis Tools’ (CytoCypher, Amsterdam, NL). […]

Data set [9] concerns the target T2, β2-AR. Kind of data set: Conformational β2-AR BRET sensor in HEK293A cells. (BRET reads energy transfer from a luciferase to a nearby fluorophore.)
Target sequence in this assay (P07550 1-369): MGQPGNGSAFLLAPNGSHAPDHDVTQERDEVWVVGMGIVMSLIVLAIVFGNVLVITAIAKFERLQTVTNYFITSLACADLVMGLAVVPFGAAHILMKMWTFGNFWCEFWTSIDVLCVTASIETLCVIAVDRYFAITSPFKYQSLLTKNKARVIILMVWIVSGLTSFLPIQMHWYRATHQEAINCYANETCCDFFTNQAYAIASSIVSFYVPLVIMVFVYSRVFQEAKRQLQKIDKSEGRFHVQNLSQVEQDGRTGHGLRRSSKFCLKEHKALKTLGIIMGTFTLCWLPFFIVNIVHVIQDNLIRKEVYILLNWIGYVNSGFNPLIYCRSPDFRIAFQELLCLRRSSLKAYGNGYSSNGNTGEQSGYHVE
Procedure: The next day, cells were washed with HBSS and incubated with a 1/1000 stock solution of furimazine. […] Wells pre-incubated with 0.1% DMSO/HBSS control were treated with vehicle control.
Raw BRET ratios were defined as acceptor emission/donor emission.
Antagonist pKB values were calculated using the agonist potency and concentration together with the antagonist IC50 values, using the Cheng-Prusoff equation.
Where [10] appears, read: pKi PSScis, β1-AR, illuminated to PSScis (360 nm) before experiment.
[11] abbreviates: pKi trans, β1-AR, without prior illumination (trans-isomer).
The mark [12] stands for this setting: pKi PSScis, illuminated to PSScis (360 nm) before experiment.
Where [13] appears, read: pKi trans, without prior illumination (trans-isomer).

Where “and” joins values, the source holds several entries; their conditions need not be identical. Equal entries are not always repeated.

T1 sequence (P08588 whole entry): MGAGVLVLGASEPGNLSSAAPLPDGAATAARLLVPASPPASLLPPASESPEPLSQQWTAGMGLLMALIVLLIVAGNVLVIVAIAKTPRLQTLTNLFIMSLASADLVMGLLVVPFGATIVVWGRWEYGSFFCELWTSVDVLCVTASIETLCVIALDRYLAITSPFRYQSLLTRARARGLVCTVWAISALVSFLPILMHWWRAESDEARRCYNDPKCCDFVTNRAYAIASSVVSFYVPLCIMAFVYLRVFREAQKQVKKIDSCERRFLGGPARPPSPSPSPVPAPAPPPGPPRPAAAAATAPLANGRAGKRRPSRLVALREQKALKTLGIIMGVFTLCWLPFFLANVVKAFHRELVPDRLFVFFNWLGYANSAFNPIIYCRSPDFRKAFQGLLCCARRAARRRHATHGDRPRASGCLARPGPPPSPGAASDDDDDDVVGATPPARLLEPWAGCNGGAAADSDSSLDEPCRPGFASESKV

`CC(C)NCC(O)COc1ccccc1/N=N/c1ccccc1` (stereo not drawn) [Opto-prop-1] came in with a Ki at β1-AR [1] (Ki at β1-AR, trans-isomer) of less than 13 nM. At β1-AR [1], the “fold Ki trans vs PSScis at β1-AR” value is 9 fold and 9.4 fold; the “Active state at β1-AR” value is “trans”. The compound further had a Ki on β1-AR [1] (setting [10]) of 79.4 nM. This compound showed a Ki on β1-AR [1] (setting [11]) of 7.94 nM. Besides, the “selectivity β2-AR over β1-AR” value at β2-AR [2] (both isomers) was no less than 10 fold. Besides, at β2-AR [2], the “fold Ki trans vs PSScis at β2-AR” value is 4 fold and 4.3 fold; the “Active state at β2-AR” value is given as “trans”. Further, on β2-AR [2] (setting [12]), the Ki is 3.16 nM. The same compound had a Ki on β2-AR [2] (setting [13]) of 0.794 nM. In data set [3], this compound registered a λmax cis of 423 nm and a λmax trans of 321 nm. In addition, in [4], the “t1/2 20°C (thermal relaxation of cis-isomer)” value was greater than 240 h. For the same compound, in data set [5], the “PSScis (% cis-isomer)” value came out at 88.9 ± 1.0 % cis-isomer and the “PSStrans (% cis-isomer)” value was 28.8 ± 0.3 % cis-isomer.
As to `CC(C)NCC(O)COc1ccc(/N=N/c2ccccc2)cc1` (stereo not drawn) [Opto-prop-3], the Ki is less than 13 nM on β1-AR [1] (Ki at β1-AR, trans-isomer); 200 nM on β1-AR [1] (setting [10]); 12.6 nM at β1-AR [1] (setting [11]); 3980 nM at β2-AR [2] (setting [12]); 10000 nM on β2-AR [2] (setting [13]). For the same compound, the “selectivity β1-AR over β2-AR” value on β1-AR [1] (both isomers) was no less than 10 fold. Besides, at β1-AR [1], the “fold Ki trans vs PSScis at β1-AR” value was 18 fold. Besides, the “Active state at β1-AR” value on β1-AR [1] is on record as “trans”. Also, the “fold Ki trans vs PSScis at β2-AR” value on β2-AR [2] was found to be 2.6 fold. The “Active state at β2-AR” value at β2-AR [2] is “cis”. For the same compound, in data set [3], the λmax cis was found to be 429 nm. This compound registered a λmax trans in [3] of 347 nm. Also, the “t1/2 20°C (thermal relaxation of cis-isomer)” value in [4] was greater than 240 h. In data set [5], the “PSScis (% cis-isomer)” value is 93.8 ± 0.6 % cis-isomer. The “PSStrans (% cis-isomer)” value in data set [5] worked out at 21.5 ± 0.1 % cis-isomer. Moreover, the “trans-content at PSStrans” value in data set [5] (434 nm) is recorded as 78.5%.
As to `CCCc1ccccc1OCC(O)CNC(C)C` (stereo not drawn) [[3H]dihydroalprenolol, dihydroalprenolol], the “Bmax, β2-AR membranes” value at β2-AR [6] worked out at 33 ± 19 pmol/mg. For the same compound, the “Bmax, β1-AR membranes” value on β1-AR [7] was determined as 56 ± 16 pmol/mg.
In the case of `CC(C)NCC(O)COc1ccccc1/N=N\c1ccccc1` (stereo not drawn) [cis-Opto-prop-1], on β2-AR [2], the “selectivity in binding β2-AR over β1-AR” value was found to be 21 fold.
Turning to `CC(C)NCC(O)COc1cccc(/N=N\c2ccccc2)c1` (stereo not drawn) [cis-Opto-prop-2], the “increase in β2-AR affinity upon 360 nm illumination” value on β2-AR [2] (cis vs trans) is recorded as roughly 3 log-units. Moreover, the “selectivity in binding β2-AR over β1-AR” value at β2-AR [2] amounted to 78 fold. Besides, the “effect on isoprenaline-enhanced contractility” value in [8] is on record as “attenuated”.
On to `CC(C)NCC(O)c1ccc(O)c(O)c1` (stereo not drawn) [isoprenaline, reference compound], for which the “effect on sarcomere shortening” value in [8] (15 nM) is recorded as “further increased the shortening of the sarcomeres”.
Regarding `CC(C)NCC(O)COc1cccc(/N=N/c2ccccc2)c1` (stereo not drawn) [trans-Opto-prop-2], at β2-AR [2], the “fold Ki trans vs PSScis at β2-AR” value is 587 fold. The compound further showed an IC50 against β2-AR [9] of 1000 nM. Besides, the “effect on isoprenaline-enhanced contractility” value in data set [8] is given as “not”.
As to `CC(C)NCC(O)COc1ccc(/N=N/c2ccccc2)cc1` (stereo not drawn) [trans-Opto-prop-3], the “selectivity in binding affinity β1-AR over β2-AR” value at β1-AR [1] (trans-isomer) amounted to 813 fold.

What is called Ki is a dissociation constant, usually derived from enzyme kinetics or from competition with a known ligand. Low readings indicate tighter binding, high ones weaker binding. A word on the IC50: it is the concentration that gives 50% inhibition. Read a low IC50 as higher potency.
